These results are taken from patent publication US20250049827A1, “A PHARMACEUTICAL COMPOSITION FOR THE TREATMENT OF OTIC INFECTIONS” (Intervet Inc., priority 2021, published 2025).

Read-outs that look alike come from different tables or passages of the source.

For data set [1] the following is noted: cited from earlier work.
Data set [2] can be described thus: Pilot ear depletion study: gentamicin concentration in ear wax. Format: in vivo. How it is done: An ear depletion study was performed to assess gentamicin concentration in ear wax. It was determined that the gentamicin concentrations detected in the ear wax were high enough to be effective against gentamicin resistant Pseudomonas aeruginosa.
In data set [3] the test system is gentamicin resistant Pseudomonas aeruginosa. The settings on record: MIC studies performed in the US; cited from earlier work.

In the case of `C[C@@H]1C[C@H]2[C@@H]3CCC4=CC(=O)C=C[C@]4(C)[C@@]3(Cl)[C@@H](O)C[C@]2(C)[C@@]1(OC(=O)c1ccco1)C(=O)CCl` [Mometasone Furoate, 9,21-Dichloro-1 1 (beta), 17-dihydroxy-16 (alpha)-methylpregna-1,4-diene-3,20-dione 17-(2 Furoate)], the solubility result in data set [1] (in acetone and chloroform) is given as “soluble”; in data set [1] (in methanol, ethanol, and isopropanol), “slightly soluble”; in data set [1] (in tetrahydro furan) it was “freely soluble”; in data set [1] (in water), “practically insoluble”.
As to Gentamicin, the “Total Gentamicin Concentration (mg/g) [Mean ± STD]” value in data set [2] (24 hours post dose, Left ear) was determined as 11.51 ± 8.68 mg/g; in data set [2] (24 hours post dose, Right ear) it was 11.96 ± 10.11 mg/g; in data set [2] (72 hours post dose, Left ear) it was 8.15 ± 2.94 mg/g; in data set [2] (72 hours post dose, Right ear), 8.66 ± 5.00 mg/g; in data set [2] (168 hours post dose, Left ear), 3.78 ± 1.55 mg/g; in data set [2] (168 hours post dose, Right ear), 3.97 ± 3.38 mg/g. In addition, the “Total Gentamicin Concentration (mg/g) [Mean ± STD]” value worked out at 1.87 ± 1.49 mg/g in data set [2] (240 hours post dose, Left ear); 2.29 ± 1.36 mg/g in data set [2] (240 hours post dose, Right ear); 1.46 ± 2.08 mg/g in data set [2] (336 hours post dose, Left ear); 2.25 ± 2.44 mg/g in data set [2] (336 hours post dose, Right ear). Moreover, the “highest MIC” value in data set [3] is 64 µg/mL.
